The values that follow come from patent publication US9763894B2, “Inflammation therapy” (Virginia Commonwealth University, priority 2006, dated 2017).

“Also recorded” adds a separate entry of the source.

Assay [1] addresses T1, human CB2 receptor (Homo sapiens, UniProt P34972).
T1 construct: expressed in transfected cells
Description: 35S-GTPγS binding, CHO cells expressing human CB2 receptor. The class given is biochemical. On the procedure: (§1) (Martin et al. 2002; Wiley et al. 2002) CB1 and CB2 receptor affinities were determined using ^3H-CP 55,940 binding to rat brain membranes and to Chinese Hamster Ovary (CHO) cells stably expressing the human CB2 receptor, respectively. In vitro functional activity was determined in these same preparations using ^35S-GTPγS binding. For in vivo behavioural effects, mice were injected intravenously with the drugs prepared in ethanol:emulphor:saline (1:1:18). The mice were evaluated for locomotor activity, analgesia, body temperature, and catalepsy. These behaviours are collectively referred to as the tetrad test and are indicative of CB1 receptor activity.
For orientation: GTPγS resists hydrolysis and so accumulates on activated G proteins.

Assay [2] has as its system mice. Description: Tetrad test (locomotor activity, analgesia, body temperature, catalepsy), indicative of CB1 receptor activity. It counts as in vivo, mouse. The note with it: i.v., doses up to 30 mg/kg. The procedure: The cerebral ischemia/reperfusion studies were carried out on 8 week old male C57BL/6 mice (weighing 23 to 27 g; Taconic N.Y.) and conducted in accordance with the guidelines approved by Institute for Animal Care and Use Committee at Temple University. The behavioural evaluation of the cannabinoid analogs was carried out in 8-week old ICR male mice weighing 23-27 g in accordance with the guidelines approved by the Institute for Animal Care and Use Committee at Virginia Commonwealth University.
as §1

Assay [3] relates to C57BL/6 mice. Description: Regional cerebral blood flow (rCBF) during MCAO. It counts as in vivo, mouse. The note with it: 1 mg/kg, 1 hour prior to occlusion, versus vehicle. On the procedure:
(§2) The animals were anesthetized with an intraperitoneal injection of Ketamine ([…])-Xylazine (20 mg/kg) mixture (1:1) at a dose of 1 ml/kg. Body temperature was maintained at […]° C. by a heating lamp and heating pad. Middle cerebral artery occlusion was achieved by the intraluminal filament methods. (Hata et al. 1998) Briefly, a midline neck incision was made under the operation microscope; the right common carotid artery (CCA), external carotid artery (ECA) and internal carotid artery (ICA) were isolated. The ECA was ligated with 6-0 silk suture distal from the ICA-ECA branch and then cut distal from ligated point. Another 6-0 silk suture was tied loosely around ECA at close to the origin at the CCA. A blunted 5-0 monofilament nylon suture coated with poly-L-lysine (0.1% in deionized water, Sigma) (Belayev et al. 1999) was introduced from a small incision on ECA and then advanced into the circle of Willis, and finally to the origin of the middle cerebral artery. The silk suture around the ECA stump was tied tightly to prevent bleeding and secure the nylon suture. The nylon suture was removed after 60 minutes occlusion and ECA was permanently tied. Reperfusion was confirmed when pulsations were again observed in ICA.
A laserPro Blood Perfusion Monitor (TSI Inc) was used to monitor regional cerebral blood flow (rCBF) prior to ischemia, during MCAO and reperfusion. […]

In assay [4] the test system is C57BL/6 mice. Description: Infarct volume after middle cerebral artery occlusion and reperfusion (MCAO/R). The note with it: 24 hours after MCAO. The class given is in vivo, mouse. The procedure:
as §2
The CB2 agonists (O-1966 and O-3853: described in Wiley et al and WO 03/091189, incorporated herein by reference, and the copending application of Razdan et al)) were dissolved in a pure ethanol:emulphor:saline mixed solution at 1:1:18. The CB2 agonists (1 mg/kg) or equal volume of vehicle were administered as an intravenous injection into the jugular vein 1 hour before MCAO or 10 minutes after reperfusion. The investigator was blinded with regard to whether the animals were members of vehicle or treatment groups during all experimental procedures and measurements.
Animals were euthanized with an overdose of pentobarbital (200 mg/kg i.p) 24 hours after MCAO and then the brains were removed. The brains were chilled in ice for 10 minutes to slightly harden the tissue. Five 2 mm coronal sections were cut using a mouse brain matrix (Zivic lab).The brain sections were placed in 2% triphenyltetrazolium chloride (TTC) (Sigma, Inc) dissolved in saline and stained for 20 minutes at 37° C. in the dark. The brain sections were then fixed in 4% paraformaldehyde at 4° C. for 24 hours and the anterior and caudal face of each section was scanned by a flatbed color scanner (Microtek Inc). The resulting images were captured as JPEG files (FIG. 2E) and analyzed with NIH image software. The infarct volumes were expressed as mm^3 as well as the percentage of the ipsilateral hemisphere.

The subject of assay [5] is C57BL/6 mice. Description: Neurological evaluation (five-point deficit score) after MCAO/R. The note with it: 24 hours post-ischemia. It counts as in vivo, mouse. The procedure:
as §2, with “The silk suture around the ECA stump was tied tightly to prevent bleeding and secure the nylon suture. The nylon suture was removed after 60 minutes occlusion and ECA was permanently tied. Reperfusion was confirmed when pulsations were again observed in ICA.” left out
The severity of neurological deficits was evaluated 24 hours after ischemic insult using a five-point deficit score (0=normal motor function; 1=flexion of torso and of contralateral forelimb upon lifting of the animal by tail; 2=circling to the contralateral side but normal posture at rest; 3=leaning to contralateral side at rest; and 4=no spontaneous motor activity) (Hata et al. 1998).

Assay [6] has as its system C57BL/6 mice. Description: Leukocyte/endothelial interactions by intravital microscopy through a cranial window in MCAO/R. The note with it: treatment 1 hour before MCAO. It counts as in vivo, mouse. The procedure:
On the day of cranial window implantation, the animals were anesthetized with an intraperitoneal injection of Ketamine (100 mg/ml)-Xylazine (20 mg/kg) mixture (1:1) at a dose of 1 ml/kg. The head was shaved and positioned in a stereotactic head holder. A 1 cm^2 area of skin on the dorsal surface of the skull over the right cortical hemisphere was excised and the periosteum was removed. A 4 mm diameter circular craniotomy was performed using a high speed drill (Champ-Air Dental Drill Benco Dental) over the right parietal cortex extending from attachment of the temporal muscle to midpoint of sagittal suture in the coronal direction and aligned to middle of the sagittal suture, so that the window contained some terminal branches of the middle cerebral artery. Normal saline was dripped over the cranium to avoid thermal injury of the cortex. […]
Leukocyte/endothelial interactions were evaluated before MCAO, 1 hour after MCAO and 24 hours after MCAO. […] Three venules (with diameter 30-50 μm) and three arterioles (with diameter 20-40 μm) in each animal were assessed. […] They were counted when they passed an arbitrary line perpendicular to the longitudinal axis of the vessel over a period of 30 seconds. […] Adhering leukocytes were scored as the number of cells per mm^2 of the vascular surface area, calculated from the diameter and standardized length (100 μm) of the vessel segment under investigation.

In assay [7] the test system is C57BL/6 mice. Description: Thoracic spinal cord injury (SCI) model. It counts as in vivo, mouse. On the procedure: A thoracic spinal cord injury model was induced in female 6-8 week old C57BL/6 mice. Spinal cord CB2 mRNA expression was evaluated in sham animals and SCI animals 24 hours after injury by real time RT-PCR. Animals were randomized into two groups: the experimental group received intraperitoneal injections of a selective CB2 agonist (O-1966; 1 mg/kg) one hour before injury, 24 and 48 hours after injury; the control group received equal volumes of vehicle. Both groups were tested for motor function by using the Basso Mouse Scale for Locomotion (BMS) and the Basso, Beattie, Bresnahan Locomotor Rating Scale (BBB) on post-procedure days 1, 7, and 14. Urine mass was recorded twice daily to assess bladder recovery. The inflammatory cytokine TNF-α was measured by real time RT-PCR in both groups 24 hours after SCI.

The target of assay [8] is T2, CB1 receptor (Rattus norvegicus, UniProt P20272).
T2 construct: from tissue; host or cells: rat brain membranes
The note with it: reported previously (Wiley et al. 2002); read-out: affinity for CB1 cannabinoid receptor; cited from earlier work.

Assay [9] addresses T1, human CB2 receptor. The note with it: reported previously (Wiley et al. 2002); read-out: affinity for CB2 cannabinoid receptor; cited from earlier work.
The subject of assay [10] is mice. Conditions: reference CB1/CB2 agonist, all four measures; cited from earlier work.
The mark [11] stands for this setting: 1 mg/kg i.v. 10 minutes after reperfusion (post-reperfusion treatment).
[12] abbreviates: 1 mg/kg i.v. 1 hour before MCAO (pre-ischemic treatment).

T1 sequence (P34972 whole entry): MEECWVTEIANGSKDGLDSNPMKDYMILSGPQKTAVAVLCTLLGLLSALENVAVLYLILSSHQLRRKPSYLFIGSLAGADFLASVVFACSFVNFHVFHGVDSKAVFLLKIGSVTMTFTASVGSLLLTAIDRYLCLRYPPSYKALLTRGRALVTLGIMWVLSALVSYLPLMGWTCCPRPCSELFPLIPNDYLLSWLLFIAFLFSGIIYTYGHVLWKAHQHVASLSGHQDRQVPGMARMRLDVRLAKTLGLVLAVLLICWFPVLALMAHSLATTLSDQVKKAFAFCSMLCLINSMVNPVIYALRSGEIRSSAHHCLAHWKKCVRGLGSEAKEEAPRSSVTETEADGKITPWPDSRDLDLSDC
T2 sequence (P20272 whole entry): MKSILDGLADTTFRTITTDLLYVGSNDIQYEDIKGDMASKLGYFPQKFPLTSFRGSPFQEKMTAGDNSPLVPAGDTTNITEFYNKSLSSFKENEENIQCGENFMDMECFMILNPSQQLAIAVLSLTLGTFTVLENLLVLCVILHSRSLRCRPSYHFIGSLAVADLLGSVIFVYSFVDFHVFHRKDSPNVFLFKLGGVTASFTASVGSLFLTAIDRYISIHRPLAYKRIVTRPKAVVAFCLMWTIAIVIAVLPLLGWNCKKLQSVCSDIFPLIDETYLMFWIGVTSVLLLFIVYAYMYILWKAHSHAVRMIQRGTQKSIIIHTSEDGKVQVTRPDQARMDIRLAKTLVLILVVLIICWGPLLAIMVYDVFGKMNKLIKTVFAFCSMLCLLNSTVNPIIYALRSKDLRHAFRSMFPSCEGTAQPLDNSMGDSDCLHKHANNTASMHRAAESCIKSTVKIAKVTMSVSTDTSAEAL

Broadly, the EC50 is the concentration that produces a half-maximal response. The Emax is the greatest response seen or fitted, relative to the assay's reference. `CCCCCCC(C)(C)c1cc(OC)c(C2(O)CCCC(C)C2)c(OC)c1` (centres unmarked) [O-1966]: the EC50 in assay [1] (CHO cells with human CB2, read-out: EC50 for stimulating 35S-GTPγS binding (CB2)) is 70 ± 14 nM. In addition, the maximum response (Emax) in [1] (percent of maximal stimulation produced by the full agonist CP 55,940) worked out at 74 ± 5%. The “effects in the tetrad test (CB1 receptor-mediated behavioural effects)” value in assay [2] is listed as “produced some modest behavioural effects only at doses that far exceeded those used in the MCAO/R studies; also recorded: failed to produce effects in the tetrad test”. Besides, in [3], the “effect on rCBF during the 1 hour occlusion period” value is reported as “no effect on rCBF”. In addition, the infarct volume in assay [4] (setting [11]) was determined as 71.3±5.5 mm^3; in assay [4] (setting [12]), 65.6±4.0 mm^3. Further, the “infarct volume as percentage of the ipsilateral hemisphere” value in assay [4] (setting [11]) came out at 27±2%; in [4] (setting [12]), 25±2.5%. Also, the motor function score in assay [5] (pretreatment 1 hour before MCAO, vehicle 3.25±0.20) was 1.69±0.30. Besides, the motor function entry in assay [5] (treatment during reperfusion) is given as “significantly improved the motor function”. In addition, in [6], the leukocyte/endothelial interactions entry is “attenuated leukocyte/endothelial interactions”. The “motor function recovery (BMS and BBB)” value in assay [7] (1 mg/kg i.p. one hour before, 24 and 48 hours after injury, days 1, 7 and 14) was “better motor function recovery than the control group”. Further, the “bladder function recovery rate” value in assay [7] (1 mg/kg i.p., 14th day after SCI, control group 14%) came out at 45%. The “TNF-α expression in the injured spinal cord” value in assay [7] (real time RT-PCR, 24 hours after SCI, compared to control group) is “decreased TNF-α expression”. Further, the Ki in assay [8] is 5.05 µM; in assay [9] it was 23 ± 2.1 nM.

Turning to `CCCCCc1cc(O)c2c(c1)OC(C)(C)[C@@H]1CCC(C)=C[C@@H]21` [Δ^9-tetrahydrocannabinol], the “ED50's in the four tetrad measures” value in assay [10] is 1 to 2 mg/kg.
